Laboratory results reported in patent US7973047B2, “Beta-Secretase modulators and methods of use” (Amgen Inc., priority 2010, dated 2011).

test system: Aβ40 in conditioned medium of cells stably expressing Amyloid Precursor Protein (APP); experiment: BACE cell-based assay: Aβ40 in conditioned medium by sandwich ELISA; conditions: cell based assay data of Table 4; unit inferred; read-out: Cell Assay
Procedure: The cell-based assay measures inhibition or reduction of Aβ40 in conditioned medium of test compound treated cells expressing amyloid precursor protein.
Cells stably expressing Amyloid Precursor Protein (APP) were plated at a density of 40K cells/well in 96 well plates (Costar). The cells were cultivated for 24 hours at 37° C. and 5% CO2 in DMEM supplemented with 10% FBS. The test compounds were then added to cells in 10-point dose response concentrations with the starting concentration being either 100 μM or 10 μM. The compounds were diluted from stock solutions in DMSO and the final DMSO concentration of the test compounds on cells was 0.1%. After 24 h of incubation with the test compounds the supernatant conditioned media was collected and the Aβ40 levels were determined using a sandwich ELISA. The ICso of the compound was calculated from the percent of control or percent inhibition of Aβ40 as a function of the concentration of the test compound.
The sandwich ELISA to detect Aβ40 was performed in 96 well microtiter plates, which were pre-treated with goat anti-rabbit IgG (Pierce). The capture and detecting antibody pair that were used to detect Aβ40 from cell supernatants were affinity purified pAb40 (Biosource) and biotinylated 6E10 (Signet Labs Inc.), respectively. The optimal concentration for the pAb40 antibody was 3 μg/ml in Superblock/TBS (Pierce) that was supplemented with 0.05% Tween 20 (Sigma).
Cellular supernatants were incubated with the capture antibody for 3 h at 4° C., followed by 3 wash steps in TBS-tween (0.05%). The detecting antibody incubation was for 2 h at 4° C., again followed by the wash steps as described previously. The final readout of the ELISA is Time-Resolved Fluorescence (counts per minute) using Delfia reagents Streptavidin-Europium and Enhancement solutions (Perkin Elmer) and the Victor 2 multilabel counter (Perkin Elmer).

| IC50 [nM] | Compound |
| --- | --- |
| 29 | CCc1cnc2c(c1)[C@@H](NC[C@@H](O)[C@H](Cc1cccc(F)c1)NC(C)=O)CC1(CCC1)O2 [compound 566] |
| 2860 | CCCCC(O)c1cnc2c(c1)[C@@H](NC[C@@H](O)[C@H](Cc1ccc(F)cc1)NC(C)=O)CC1(CCC1)O2 (stereo partly shown) [compound 684] |
| 23.4 | CC(=O)N[C@@H](Cc1cccc(F)c1)[C@H](O)CN[C@H]1CC2(CCC2)Oc2c1cc(CC(C)(C)C)[nH]c2=O [compound 594] |
| 12.9 | CC(=O)N[C@@H](Cc1cccc(F)c1)[C@H](O)CN[C@H]1CC2(CCC2)Oc2c1cc(CC(C)(C)C)nc2NCCNC(=O)OC(C)(C)C [compound 603] |
| 2.83 | CC(=O)N[C@@H](Cc1cc(F)cc(F)c1)[C@H](O)CN[C@H]1CC2(CCCC2)Oc2ncc(CC(C)(C)C)cc21 [compound 548] |
| 2.36 | CC(=O)N[C@@H](Cc1ccc(F)c(F)c1)[C@H](O)CN[C@H]1CC2(CCC2)Oc2ncc(CC(C)(C)C)cc21 [compound 701] |
| 6.93 | CC(=O)N[C@@H](Cc1cccc(F)c1)[C@H](O)CN[C@H]1CC2(CCCC2)Oc2ncc(CC(C)(C)C)cc21 [compound 549] |
| 2.98 | CCNc1nc(CC(C)(C)C)cc2c1OC1(CCC1)C[C@@H]2NC[C@@H](O)[C@H](Cc1cccc(F)c1)NC(C)=O [compound 591] |
| 10.2 | CC(=O)N[C@@H](Cc1cccc(F)c1)[C@H](O)CN[C@H]1CC2(CCC2)Oc2nc(F)c(CC(C)(C)C)cc21 [compound 661] |
| 116 | CC(=O)N[C@@H](Cc1cccc(C#N)c1)[C@H](O)CN[C@H]1CC(C)(C)Oc2ccc(Br)cc21 [compound 526] |
| 651 | CC(=O)N[C@@H](Cc1ccccc1)[C@H](O)CN[C@H]1CC2(CCC2)Cc2ncc(C)cc21 [compound 541, N-((1S,2R)-2-hydroxy-3-(((5′S)-3′-methyl-5′,8′-dihydro-6′H-spiro[cyclobutane-1,7′-quinolin]-5′-yl)amino)-1-(phenylmethyl)propyl)acetamide] |
| 94.7 | CC(=O)N[C@@H](Cc1ccc(F)cc1)[C@H](O)CN[C@H]1CC2(CCC2)Oc2nc(F)c(CC(C)(C)C)cc21 [compound 662] |
| 20.3 | N-((1S,2R)-3-(((4′S)-6′-(2,2-dimethylpropyl)-3′,4′-dihydrospiro[cyclopropane-1,2′-pyrano[2,3-b]pyridin]-4′-yl)amino)-1-((4-fluoro-3-methylphenyl)methyl)-2-hydroxypropyl)acetamide [compound 550] |
| 189 | CC(=O)N[C@@H](Cc1ccc(C(F)(F)F)cc1)[C@H](O)CN[C@H]1CC2(CCC2)Oc2ncc(CC(C)(C)C)cc21 [compound 648] |
| 3.37 | CC(=O)N[C@@H](Cc1ccnc(Cl)c1)[C@H](O)CN[C@H]1CC2(CCC2)Oc2ncc(CC(C)(C)C)cc21 [compound 642, N-((1S,2R)-1-((2-chloro-4-pyridinyl)methyl)-3-(((4′S)-6′-(2,2-dimethylpropyl)-3′,4′-dihydrospiro[cyclobutane-1,2′-pyrano[2,3-b]pyridin]-4′-yl)amino)-2-hydroxypropyl)acetamide] |
| 2160 | CC(=O)N[C@@H](Cc1cc(F)cc(F)c1)[C@H](O)CN[C@H]1CC2(CCC2)Oc2ccc(-c3cn(C)nn3)cc21 [compound 520] |
| 8.01 | CC(=O)N[C@@H](Cc1ccc(F)c(N(C)C)c1)[C@H](O)CN[C@H]1CC2(CCC2)Oc2ncc(CC(C)(C)C)cc21 [compound 709] |
| 6.04 | CC(=O)N[C@@H](Cc1ccccc1)[C@H](O)CN[C@H]1CC2(CCC2)Oc2ncc([C@H](F)C(C)(C)C)cc21 [compound 679] |
| 11.7 | CC(=O)N[C@@H](Cc1cc(F)cc(F)c1)[C@H](O)CN[C@H]1CC2(CCC2)Nc2ccc(CC(C)(C)C)cc21 [compound 560, N-((1S,2R)-1-((3,5-difluorophenyl)methyl)-3-(((4′S)-6′-(2,2-dimethylpropyl)-3′,4′-dihydro-1′H-spiro[cyclobutane-1,2′-quinolin]-4′-yl)amino)-2-hydroxypropyl)acetamide] |
| 62 | CC(=O)N[C@@H](Cc1ccc(Cl)cc1)[C@H](O)CN[C@H]1C[C@]2(CC[C@@H]2C)Oc2ncc(CC(C)(C)C)cc21 [compound 620] |

same assay, conditions: cell based assay data, Table 4; unit inferred; read-out: Cell Assay

| Compound | IC50 [nM] |
| --- | --- |
| COC(=O)c1ccc2c(c1)[C@@H](NC[C@@H](O)[C@H](Cc1cccc(C#N)c1)NC(=O)CN(C)C)CC1(CCC1)O2 [compound 728] | 43.9 |
| CC(=O)N[C@@H](Cc1cc(F)cc(Cl)c1)[C@H](O)CN[C@H]1CC(C)(C)Oc2c1cc(CC(C)(C)C)nc2N(C)C [compound 757] | 68.9 |
| CC(=O)N[C@@H](Cc1cc(F)cc(F)c1)[C@H](O)CN[C@H]1CC2(CC(C)C2)Oc2ncc(CC(C)(C)C)cc21 (stereo partly shown) [compound 764] | 1.55 |
| N-((1S,2R)-3-(((2R,4S)-1′-acetyl-6-ethyl-3,4-dihydrospiro[chromene-2,3′-pyrrolidin]-4-yl)amino)-2-hydroxy-1-(phenylmethyl)propyl)acetamide N-((1S,2R)-3-(((2S,4S)-1′-acetyl-6-ethyl-3,4-dihydrospiro[chromene-2,3′-pyrrolidin]-4-yl)amino)-2-hydroxy-1-(phenylmethyl)propyl)acetamide [compound 812] | 1950 |
| CCCOC[C@H](NC(C)=O)[C@H](O)CN[C@H]1CC2(CCC2)Oc2ccc(CC)cc21 [compound 732] | 3260 |
| CC(=O)N[C@@H](Cc1cc(F)cc(F)c1)[C@H](O)CN[C@H]1CC2(CCC2)Oc2ncc(-n3cccn3)cc21 [compound 746] | 215 |
| CC(=O)N[C@@H](Cc1cc(F)cc(Cl)c1)[C@H](O)CN[C@H]1CC2(CCC2)Oc2cnc(CC(C)(C)O)cc21 [compound 751] | 38.8 |
| CCc1ccc2c(c1)[C@@H](NC[C@@H](O)[C@H](COC)NC(C)=O)CC1(CCC1)O2 [compound 731] | 2520 |

Second part, the compound after the results:

| IC50 [nM] | Compound |
| --- | --- |
| 3.58 | CC(=O)N[C@@H](Cc1cc(F)cc(Cl)c1)[C@H](O)CN[C@H]1CC2(CCC2)Oc2ncc(CC(C)(C)F)cc21 [compound 837] |
| 148 | CC(=O)N[C@@H](Cc1ccc(F)cc1)[C@H](O)CN[C@H]1CC2(CCC2)Oc2ncc(C(F)C(C)C(F)(F)F)cc21 (stereo partly shown) [compound 859] |
| 2950 | CC(=O)N[C@@H](Cc1cc(F)cc(F)c1)[C@H](O)CN[C@H]1CC2(CCC2)Oc2cc(F)ccc21 [compound 804] |
| 452 | CC(=O)N[C@@H](Cc1ccc(Cl)cc1)[C@H](O)CN[C@H]1CC2(CCC2)Oc2ncc(C(F)C(C)C(F)(F)F)cc21 (stereo partly shown) [compound 860] |
| 503 | N-((1S,2R)-3-(((4′S)-6′-bromo-3′,4′-dihydrospiro[cyclobutane-1,2′-pyrano[2,3-b]pyridin]-4′-yl)amino)-1-((4-fluorophenyl)methyl)-2-hydroxypropyl)acetamide [compound 843] |
| 190 | CC(=O)N[C@@H](Cc1ccccc1)[C@H](O)CN[C@H]1CC2(CCC2)Oc2ccc(-c3ccn(CC(C)C)n3)cc21 [compound 779] |
| 38.9 | CC(=O)N[C@@H](Cc1cccc(F)c1F)[C@H](O)CN[C@H]1C[C@]2(C[C@@H](C)C2)Oc2ncc(CC(C)(C)C)cc21 [compound 768, N-((1S,2R)-1-((2,3-difluorophenyl)methyl)-3-(((1r,3S,4′S)-6′-(2,2-dimethylpropyl)-3-methyl-3′,4′-dihydrospiro[cyclobutane-1,2′-pyrano[2,3-b]pyridin]-4′-yl)amino)-2-hydroxypropyl)acetamide] |
| 2970 | CC(=O)N[C@@H](Cc1cc(F)cc(F)c1)[C@H](O)CN[C@H]1CC2(CCC2)Oc2ccc(-c3cccs3)cc21 [compound 785] |
| 20.6 | COC(=O)N[C@@H](Cc1ccccc1)[C@H](O)CN[C@H]1CC2(CCC2)Oc2ncc(CC(C)(C)C)cc21 [compound 873] |
| 132 | CC(=O)N[C@@H](Cc1ccc(Cl)cc1)[C@H](O)CN[C@H]1CC2(CCCC2)Oc2ncc(CC(C)(C)C)cc21 [compound 817] |
| 81.6 | CC(=O)N[C@@H](Cc1cc(F)cc(F)c1)[C@H](O)CN[C@H]1CC2(CCC2)Oc2ccc(-n3ccnc3)cc21 [compound 782] |
| 6.26 | CC(=O)N[C@@H](Cc1cccc(Cl)c1F)[C@H](O)CN[C@H]1CC2(CCC2)Oc2ncc(CC(C)(C)C)cc21 [compound 868] |
| 8.39 | CC(=O)N[C@@H](Cc1cc(F)cc(Cl)c1)[C@H](O)CN[C@H]1CC(C)(C)Oc2cnc(CC(C)(C)C)cc21 [compound 796] |
| 9.31 | CC(=O)N[C@@H](Cc1ccc(F)c(Br)c1)[C@H](O)CN[C@H]1CC2(CCC2)Oc2ncc(CC(C)(C)F)cc21 [compound 834] |
| 1830 | CC(=O)N[C@@H](Cc1cccc(F)c1)[C@H](O)CN[C@H]1CC2(CCC2)Oc2ncc(C(O)C(C)C(F)(F)F)cc21 (stereo partly shown) [compound 863] |
| 325 | CCc1cnc2c(c1)[C@@H](NC[C@@H](O)[C@H](Cc1cc(F)cc(F)c1)NC(=O)OC)CC1(CCC1)O2 [compound 875] |
| 17.9 | CC(=O)N[C@@H](Cc1cc(F)c(F)c(Cl)c1)[C@H](O)CN[C@H]1CC2(CCC2)Oc2ncc(CC(C)(C)C)cc21 [compound 869] |
| 5.49 | CC(=O)N[C@@H](Cc1ccc2c(c1)OCO2)[C@H](O)CN[C@H]1CC2(CCC2)Oc2ncc(CC(C)(C)C)cc21 [compound 839] |
